Data: patent publication US20080153872A1, “Bis-(Coumarin) Compounds With Anti-Inflammatory Activity” (priority 2005, published 2008)

Experiments:
IL-5 = experiment: Inhibition of IL-5 production by ConA stimulated mouse splenocytes; assay type: cell-based; conditions: 25 μM
Protocol: (§1) Spleen cell suspension was obtained from BALB/c mice and lymphocytes separated by gradient density centrifugation on Histopaque 1.083 on 400 g for 30 minutes. They were washed once in medium, counted and their number adjusted as 3×10^5/200 μL/well in 96 flat bottomed culture plate in RPMI supplemented with 10% fetal bovine serum. Cells were stimulated on cytokine production by adding concanavalinA (ConA) at 5 μg/mL final concentration. Unstimulated cells were cultured in medium alone. Stock solution was prepared out of testing compounds as 10 mM in DMSO. Final concentrations made in cell culture medium were tested when they had been added together with ConA. After 72 hours incubation period cell culture supernatants were collected. In each sample IL-4, IL-5, IL-10 and IFNγ were detected and quantified using enzyme linked immunosorbent assay (ELISA) specific for pointed cytokines (R&D Systems).
(§2) To calculate results, standard curve was made out of measured OD values for recombinant protein in known concentrations. Cytokine content in unknown samples was calculated out of OD values extrapolated from the standard curve.
(§3) Percentage of inhibition is calculated using formula:
(§4) % Inhibition=(1−cytokine concentration of sample/cytokine concentration of positive control)×100.

Human recombinant Lck = molecular target: T1, Human recombinant Lck (Homo sapiens, UniProt P06239); experiment: Human protein tyrosine kinase, Lck, inhibition assay; assay type: biochemical; conditions: 10 μM
T1 construct: made in house; host or cells: Sf21 insect cells
Protocol: (§5) All compounds were dissolved in dimethyl sulfoxide (DMSO). Final concentration of the DMSO in all tests was 1% (v/v). Inhibition in all tests is considered preferred if it exceeds 50% at 10 μM concentration (or less).
Human recombinant Lck is expressed in insect Sf21 expression system and purified. Substances are pre-incubated for 15 minutes at 25° C. in HEPES buffer containing ATP, pervanadate and magnesium. Substrate (poly Glu-Tyr) is added and incubated for 60 minutes at 25° C. Activity of the enzyme is measured using phosphotyrosine (p-Tyr) specific enzyme immunoassay and inhibition is calculated from the determination of the concentration of p-Tyr. Protein tyrosine kinase, Lck, is a protein tyrosine kinase which is abundantly expressed in T-lymphocytes and is essential for T-cell receptor signal transduction and thus activation of T-lymphocytes. Lck activation stimulates recruitment and activation of ZAP-70, which is essential for T-cell activation. Inhibitors of Lck act as immunoregulatory agents in various models. Lck is implicated in T-cell leukemias and inflammation.

Human ERK1 = molecular target: T2, Human ERK1 (Homo sapiens, UniProt P27361); experiment: Human protein serine/threonine kinase, ERK1, assay; assay type: biochemical; conditions: 10 μM
T2 construct: made in house; host or cells: Escherichia coli
Protocol: as §5
Human ERK1 is expressed in Escherichia coli and purified. Compounds are pre-incubated in MOPS/EGTA buffer with pervanadate, DTT and γ-[^32P]-ATP with recombinant enzyme for 15 minutes at 37° C. Substrate (purified myelin basic protein, MBP) is added, followed by incubation at 37° C. for 30 minutes. Enzyme activity is measured by quantitation of [^32P]-MBP and inhibition is calculated from specific radioactivity. ERK1 is a serine/threonine kinase activated in MAPK (mitogen activated kinase) pathway. ERK1 is implicated in a high proportion of human cancers, including Hodgkin disease. ERK1 is involved in processes of cell growth, division and inflammation.

Tachykinin NK2 receptor = molecular target: T3, Tachykinin NK2 receptor (Homo sapiens, UniProt P21452); experiment: Human tachykinin NK2 receptor assay (SR-48968 competition); assay type: binding; conditions: 10 μM concentration; CHO-K1, competition with SR-48968
T3 construct: expressed in transfected cells; host or cells: CHO-K1
T3 sequence (P21452 1-398): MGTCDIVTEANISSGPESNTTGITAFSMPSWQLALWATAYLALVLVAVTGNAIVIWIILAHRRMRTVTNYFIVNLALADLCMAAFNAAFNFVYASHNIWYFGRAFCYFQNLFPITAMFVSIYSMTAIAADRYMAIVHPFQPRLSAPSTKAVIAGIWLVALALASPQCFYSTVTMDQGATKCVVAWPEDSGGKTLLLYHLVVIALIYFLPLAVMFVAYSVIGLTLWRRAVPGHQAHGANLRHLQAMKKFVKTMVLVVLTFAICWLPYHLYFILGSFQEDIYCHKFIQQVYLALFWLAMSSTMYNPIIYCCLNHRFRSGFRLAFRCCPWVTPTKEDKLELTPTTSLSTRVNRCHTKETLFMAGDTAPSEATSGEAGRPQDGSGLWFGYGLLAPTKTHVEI
Protocol: as §5
Tachykinin NK2 receptor is expressed in Chinese hamster ovary cell line, clone K1 (CHO-K1). Substances and radioactive competitor (tritium labelled SR-48968) are incubated with cells in HEPES/NaOH buffer for 90 minutes at 25° C. in the presence of manganese ions. Levels of the bound SR-48968 is measured by scintillation counting, and competition is calculated from the total amount of the bound SR-48968 in treated and control samples. Tachykinin receptors are involved in physiological and pathological processes of inflammation and pain. Tachykinin NK2 has been identified as a target for intervention in asthma, GI disease, irritable bowel syndrome and pancreatitis.

IL-10 = experiment: Inhibition of IL-10 production by ConA stimulated mouse splenocytes; assay type: cell-based; conditions: 25 μM
Protocol: as §1, §2, §3, §4

T1 sequence (P06239 whole entry): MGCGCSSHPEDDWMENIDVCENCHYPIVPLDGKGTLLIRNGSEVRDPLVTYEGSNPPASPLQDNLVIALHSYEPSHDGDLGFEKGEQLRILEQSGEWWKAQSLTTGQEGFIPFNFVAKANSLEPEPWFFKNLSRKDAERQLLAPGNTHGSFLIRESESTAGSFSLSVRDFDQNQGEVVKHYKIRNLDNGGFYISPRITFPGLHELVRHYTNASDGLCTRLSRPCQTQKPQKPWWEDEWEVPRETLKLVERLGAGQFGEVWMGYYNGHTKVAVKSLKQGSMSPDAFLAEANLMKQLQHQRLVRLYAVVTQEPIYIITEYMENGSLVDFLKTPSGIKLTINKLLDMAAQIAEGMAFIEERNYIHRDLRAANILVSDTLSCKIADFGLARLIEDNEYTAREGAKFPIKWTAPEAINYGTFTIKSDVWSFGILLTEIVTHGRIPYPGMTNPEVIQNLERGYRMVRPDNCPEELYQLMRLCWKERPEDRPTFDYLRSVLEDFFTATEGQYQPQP
T2 sequence (P27361 whole entry): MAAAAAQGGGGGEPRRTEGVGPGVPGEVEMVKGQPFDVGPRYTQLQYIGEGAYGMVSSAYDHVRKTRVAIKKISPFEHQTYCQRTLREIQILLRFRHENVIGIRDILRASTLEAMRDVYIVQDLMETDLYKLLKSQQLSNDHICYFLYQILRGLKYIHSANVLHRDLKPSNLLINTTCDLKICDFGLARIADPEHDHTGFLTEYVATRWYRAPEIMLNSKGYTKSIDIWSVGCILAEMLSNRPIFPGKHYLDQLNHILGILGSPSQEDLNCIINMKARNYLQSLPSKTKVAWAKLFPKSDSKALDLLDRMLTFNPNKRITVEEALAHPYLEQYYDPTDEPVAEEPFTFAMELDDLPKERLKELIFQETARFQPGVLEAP

Row | SMILES | inhibition of IL-5 production (IL-5) | inhibition of human Lck activity (Human recombinant Lck) | inhibition of human ERK1 activity (Human ERK1) | inhibition of NK2 activity (Tachykinin NK2 receptor) | inhibition of IL-10 production (IL-10)
1 | CC(=O)C(c1c(O)c2cccc(C(C)C)c2oc1=O)c1c(O)c2cccc(C(C)C)c2oc1=O [Example 19] | significantly inhibited | significantly inhibited | significantly inhibited | significant inhibition | 
2 | CC(C)c1cccc2c(O)c(C(C(=O)OCCO)c3c(O)c4cccc(C(C)C)c4oc3=O)c(=O)oc12 [Example 50] |  |  |  | significant inhibition | 
3 | CC(C)c1cccc2c(O)c(C(CO)c3c(O)c4cccc(C(C)C)c4oc3=O)c(=O)oc12 [Example 30] | significantly inhibited |  |  |  | significantly inhibited
